“And” between values parts separate entries of the source, which are not always exact repeats. Identical values can stand only once.

The IC50 is the point on the concentration scale where inhibition reaches its midpoint. A high value points to lower potency.

Sequence of High affinity nerve growth factor receptor (P04629 whole entry): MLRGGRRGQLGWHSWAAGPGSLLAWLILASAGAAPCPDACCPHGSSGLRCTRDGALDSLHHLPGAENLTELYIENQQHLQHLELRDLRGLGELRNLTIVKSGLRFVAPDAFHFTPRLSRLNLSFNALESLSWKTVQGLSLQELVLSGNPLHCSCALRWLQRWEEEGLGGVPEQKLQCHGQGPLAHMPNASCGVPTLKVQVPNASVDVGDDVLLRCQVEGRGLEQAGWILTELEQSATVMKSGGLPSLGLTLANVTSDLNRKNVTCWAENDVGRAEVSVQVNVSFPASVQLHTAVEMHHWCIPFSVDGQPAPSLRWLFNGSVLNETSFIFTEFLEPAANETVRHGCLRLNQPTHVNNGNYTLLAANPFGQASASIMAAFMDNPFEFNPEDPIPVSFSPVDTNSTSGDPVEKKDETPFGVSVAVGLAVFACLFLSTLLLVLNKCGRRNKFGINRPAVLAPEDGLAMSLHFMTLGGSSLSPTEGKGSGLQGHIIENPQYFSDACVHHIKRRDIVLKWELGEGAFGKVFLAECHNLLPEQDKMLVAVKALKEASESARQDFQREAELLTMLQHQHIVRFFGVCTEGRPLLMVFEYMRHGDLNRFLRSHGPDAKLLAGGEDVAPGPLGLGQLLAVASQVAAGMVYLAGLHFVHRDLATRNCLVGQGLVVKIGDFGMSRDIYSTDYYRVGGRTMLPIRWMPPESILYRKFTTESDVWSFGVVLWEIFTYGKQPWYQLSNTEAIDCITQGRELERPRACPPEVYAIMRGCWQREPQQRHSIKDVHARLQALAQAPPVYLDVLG
Sequence of Hepatocyte growth factor receptor (P08581 whole entry): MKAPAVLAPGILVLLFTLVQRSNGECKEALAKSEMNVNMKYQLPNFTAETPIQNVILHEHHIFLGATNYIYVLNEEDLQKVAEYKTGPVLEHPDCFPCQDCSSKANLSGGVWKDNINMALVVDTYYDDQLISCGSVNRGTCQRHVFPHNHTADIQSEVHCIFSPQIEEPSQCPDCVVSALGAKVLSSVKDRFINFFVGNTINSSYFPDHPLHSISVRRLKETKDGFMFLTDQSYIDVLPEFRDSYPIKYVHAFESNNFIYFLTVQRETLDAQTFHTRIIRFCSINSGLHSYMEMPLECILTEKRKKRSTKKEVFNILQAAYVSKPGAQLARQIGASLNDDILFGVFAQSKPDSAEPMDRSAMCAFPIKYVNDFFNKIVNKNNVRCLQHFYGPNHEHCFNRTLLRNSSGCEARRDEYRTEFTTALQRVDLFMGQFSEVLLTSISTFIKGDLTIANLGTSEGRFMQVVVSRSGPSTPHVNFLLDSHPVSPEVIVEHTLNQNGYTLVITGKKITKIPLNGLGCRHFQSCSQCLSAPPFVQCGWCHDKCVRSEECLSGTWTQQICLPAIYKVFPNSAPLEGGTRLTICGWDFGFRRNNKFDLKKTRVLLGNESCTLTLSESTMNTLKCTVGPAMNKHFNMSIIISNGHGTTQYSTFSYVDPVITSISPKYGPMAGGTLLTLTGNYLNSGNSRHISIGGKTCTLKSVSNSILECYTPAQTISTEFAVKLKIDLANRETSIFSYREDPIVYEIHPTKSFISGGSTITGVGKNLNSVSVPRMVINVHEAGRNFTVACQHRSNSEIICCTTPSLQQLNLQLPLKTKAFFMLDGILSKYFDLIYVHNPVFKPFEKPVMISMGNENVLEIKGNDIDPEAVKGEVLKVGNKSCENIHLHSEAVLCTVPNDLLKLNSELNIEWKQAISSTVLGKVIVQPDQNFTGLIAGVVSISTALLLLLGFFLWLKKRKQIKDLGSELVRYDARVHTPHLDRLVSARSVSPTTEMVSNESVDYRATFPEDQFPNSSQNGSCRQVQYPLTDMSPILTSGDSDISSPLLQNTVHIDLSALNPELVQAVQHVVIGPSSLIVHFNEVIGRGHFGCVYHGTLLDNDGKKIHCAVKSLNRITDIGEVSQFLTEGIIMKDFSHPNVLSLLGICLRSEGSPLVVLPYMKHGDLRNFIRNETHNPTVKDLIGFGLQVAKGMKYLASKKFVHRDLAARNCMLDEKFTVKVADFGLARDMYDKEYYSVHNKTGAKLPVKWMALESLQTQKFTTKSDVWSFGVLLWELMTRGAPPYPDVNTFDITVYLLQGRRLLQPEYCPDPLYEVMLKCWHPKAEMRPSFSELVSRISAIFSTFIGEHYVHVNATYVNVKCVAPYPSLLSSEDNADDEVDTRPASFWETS

One test has as its target High affinity nerve growth factor receptor (Homo sapiens, UniProt P04629). The test is described as follows: Inhibition Assay. The text has this: (§1) Inhibition assay using kinase inhibitors.
On to `CC(=O)Nc1cc(Oc2ccc(NC(=O)N3CCN(c4ccccc4)C3=O)cc2)ccn1` [2-oxoimidazolidine-1-carboxamide, 5], for which the IC50 came out at 4 nM.
For the molecule `Nc1cc(Oc2ccc(NC(=O)N3CCN(c4ccccc4)C3=O)cc2)ccn1` [2-oxoimidazolidine-1-carboxamide, 13], the IC50 is 20 nM.
Turning to `CC(=O)Nc1cc(Oc2ccc(NC(=O)N3CCN(c4ccc(F)cc4)C3=O)cc2)ccn1` [2-oxoimidazolidine-1-carboxamide, 14], 3 nM corresponded to half-maximal inhibition (IC50). Compared with the last molecule, the IC50 is about 6.7-fold lower.
The molecule `CNC(=O)Nc1cc(Oc2ccc(NC(=O)N3CCN(c4ccccc4)C3=O)cc2)ccn1` [2-oxoimidazolidine-1-carboxamide, 15] displayed an IC50 of 5 nM.
As to `CNC(=O)Nc1cc(Oc2ccc(NC(=O)N3CCN(c4ccc(F)cc4)C3=O)cc2)ccn1` [2-oxoimidazolidine-1-carboxamide, 16], the 50% inhibitory concentration (IC50) was 2 nM.
`O=C(NCCN1CCCC1)Nc1cc(Oc2ccc(NC(=O)N3CCN(c4ccc(F)cc4)C3=O)cc2)ccn1` [2-oxoimidazolidine-1-carboxamide, 17] came in with an IC50 of 4 nM. Against the preceding molecule, the IC50 is about 2-fold higher.

The next test concerns the target Hepatocyte growth factor receptor (Homo sapiens, UniProt P08581). Put plainly: Inhibition Assay.
From the text: as §1
The molecule `CCn1cnc(-c2cc3nccc(Oc4ccc(NC(=O)N5CCN(c6ccccc6)C5=O)cc4F)c3s2)c1` came in with an IC50 of 10 nM.
On the same count and under the same terms, the value for `COc1cc2nccc(Oc3ccc(NC(=O)N4CCN(c5ccccc5)C4=O)cc3F)c2cc1OC` was 10 nM.
Take `O=C(Nc1cc(Oc2ccc(NC(=O)N3CCN(c4ccccc4)C3=O)cc2F)ncn1)N1CCCC1` [Oxo-3-phenylimidazolidine-1-carboxamide, 3]: the midpoint of inhibition, the IC50, lay at 150 nM.
Regarding `O=C(Nc1cc(Oc2ccc(NC(=O)N3CCN(c4ccccc4)C3=O)cc2F)ccn1)N1CCCC1` [Oxo-3-phenylimidazolidine-1-carboxamide, 4], inhibition was half-maximal at 230 nM (IC50).
`CC(=O)Nc1cc(Oc2ccc(NC(=O)N3CCN(c4ccccc4)C3=O)cc2F)ccn1` [Oxo-3-phenylimidazolidine-1-carboxamide, 5]: the IC50 was 310 nM and 2500 nM.

(Values after BindingDB's records for doi:10.7270/Q2X065P9 (Methylgene, 2012).)
